# Experimental data as given in US9701658B2, “Amide derivatives as TTX-S blockers” (RaQualia Pharma Inc., priority 2012, dated 2017).
# Assays:
# Type in all cases: cell-based
# human Nav1.5 = molecular target: T1, human Nav1.5 (Homo sapiens, UniProt Q14524); assay: FRET assay, human Nav1.5 channels (HEK293, EFS on FDSS); conditions: read-out: activity (IC50) against Nav1.5
# T1 construct: expressed in transfected cells; host or cells: HEK293
# Method: (§1) The ability of the amide derivatives of the formula (I) to inhibit the Nav1.3, Nav1.7 and Nav1.5 channels is measured by Fluorescence Resonance Energy Transfer (FRET) assay and electrophysiology assay described below.
# (§2) This screen is used to determine the effects of compounds on human Nav1.3, human Nav1.7, and human Nav1.5 channels, utilizing electrical field stimulation (EFS) system in 96-well plate format on FDSS (Hamamatsu Photonics) platform. The change of membrane potential is monitored with FRET dye pair, oxonol (DiSBAC2(3)) and coumarin (CC2-DMPE).
# (§3) Each HEK293 cells expressing human Nav1.3 channels and HEK293 cells expressing human Nav1.5 channels are grown in T225 flasks, in a 5% CO2 humidified incubator to about 80% confluence. Media composition consists of Dulbecco's Modified Eagle Medium (high glucose), 10% FCS, 100 units/mL Penicillin, 100 microgram/mL Streptomycin and 500 microgram/mL Geneticin™. […]
# (§4) The data are analyzed and reported as normalized ratios of intensities measured at […]. […]
# (§5) This analysis is performed using a computerized specific program designed for FDSS generated data. Fluorescence ratio values are plotted using XLfit™ to determine an IC50 value for each compound.
# human Nav1.3 = molecular target: T2, human Nav1.3 (Homo sapiens, UniProt Q9NY46); assay: FRET assay, human Nav1.3 channels (HEK293, EFS on FDSS); conditions: read-out: activity (IC50) against Nav1.3
# T2 construct: expressed in transfected cells; host or cells: HEK293
# Method: as §1, §2, §3, §4, §5
# human Nav1.7 = molecular target: T3, human Nav1.7 (Homo sapiens, UniProt Q15858); assay: FRET assay, human Nav1.7 channels (CHO, EFS on FDSS); conditions: read-out: activity (IC50) against Nav1.7
# T3 construct: expressed in transfected cells; host or cells: CHO
# Method: as §1, §2
# CHO cells expressing human Nav1.7 channels are grown in T225 flasks, in a 5% CO2 humidified incubator to about 80% confluence. Media composition consists of HAM/F12 with Glutamax I, 10% FCS, 100 units/mL Penicillin and 100 microgram/mL Hygromycin. […]
# as §4, §5
# human Nav1.7 (hSCN9A) = molecular target: T4, human Nav1.7 (hSCN9A) (Homo sapiens, UniProt Q15858); assay: Electrophysiology assay for Navs, whole cell patch clamp, human Nav1.7 (hSCN9A) expressing CHO cells; conditions: Kinact, read-out: activity (Ki) against Nav1.7, dissociation constant for the inactivated state
# T4 construct: expressed in transfected cells; host or cells: CHO
# Method: Electrophysiology Assay for Navs
# Whole cell patch clamp recording is used to assess the efficacy or selectivity of Na channel blocker on human Nav1.3 (hSCN3A) expressing HEK293 cells or human Nv1.7 (hSCN9A) expressing CHO cells. Human Nav1.3 expressing HEK293 cells are grown in growth media which contain: Dulbecco's […] (DMEM), 10% heat-inactivated fetal bovine serum (FBS) (Hyclone Laboratories Inc), 100 microgram/mL Penicillin/100 U/mL Streptomycin, 150 microgram/mL Zeocin, 3 microgram/mL Geneticin. Human Nav1.7 expressing CHO cells are grown in growth media which comprised: HAM/F-12, 9% heat-inactivated FBS (Hyclone Laboratories Inc) and 100 microgram/mL Penicillin/100 U/mL Streptomycin, 100 microgram/mL Hygromycin.
# Na channel expressing cells are dissociated by 0.05% trypsine-EDTA, and then seeded on cover glass for 24 to 48 hr. […]
# The normalized steady-state inactivation curve is constructed using 2 sec (for vehicle) or 60 sec (for drugs) conditioning pulse to different potentials followed immediately by the test pulse to −10 mV. […] The affinity of drugs to resting state of Na channels (Kresting or Kr) is assessed by 30 msec test pulse from a negative holding potential of −120 or −130 mV, where virtually all channels are in the resting state. Kr value is calculated by a conventional 1:1 binding model: Kresting(Kr)={[drug]Imax,drug/(Imax,control−Imax,drug)} […]
# T2 sequence (Q9NY46 whole entry): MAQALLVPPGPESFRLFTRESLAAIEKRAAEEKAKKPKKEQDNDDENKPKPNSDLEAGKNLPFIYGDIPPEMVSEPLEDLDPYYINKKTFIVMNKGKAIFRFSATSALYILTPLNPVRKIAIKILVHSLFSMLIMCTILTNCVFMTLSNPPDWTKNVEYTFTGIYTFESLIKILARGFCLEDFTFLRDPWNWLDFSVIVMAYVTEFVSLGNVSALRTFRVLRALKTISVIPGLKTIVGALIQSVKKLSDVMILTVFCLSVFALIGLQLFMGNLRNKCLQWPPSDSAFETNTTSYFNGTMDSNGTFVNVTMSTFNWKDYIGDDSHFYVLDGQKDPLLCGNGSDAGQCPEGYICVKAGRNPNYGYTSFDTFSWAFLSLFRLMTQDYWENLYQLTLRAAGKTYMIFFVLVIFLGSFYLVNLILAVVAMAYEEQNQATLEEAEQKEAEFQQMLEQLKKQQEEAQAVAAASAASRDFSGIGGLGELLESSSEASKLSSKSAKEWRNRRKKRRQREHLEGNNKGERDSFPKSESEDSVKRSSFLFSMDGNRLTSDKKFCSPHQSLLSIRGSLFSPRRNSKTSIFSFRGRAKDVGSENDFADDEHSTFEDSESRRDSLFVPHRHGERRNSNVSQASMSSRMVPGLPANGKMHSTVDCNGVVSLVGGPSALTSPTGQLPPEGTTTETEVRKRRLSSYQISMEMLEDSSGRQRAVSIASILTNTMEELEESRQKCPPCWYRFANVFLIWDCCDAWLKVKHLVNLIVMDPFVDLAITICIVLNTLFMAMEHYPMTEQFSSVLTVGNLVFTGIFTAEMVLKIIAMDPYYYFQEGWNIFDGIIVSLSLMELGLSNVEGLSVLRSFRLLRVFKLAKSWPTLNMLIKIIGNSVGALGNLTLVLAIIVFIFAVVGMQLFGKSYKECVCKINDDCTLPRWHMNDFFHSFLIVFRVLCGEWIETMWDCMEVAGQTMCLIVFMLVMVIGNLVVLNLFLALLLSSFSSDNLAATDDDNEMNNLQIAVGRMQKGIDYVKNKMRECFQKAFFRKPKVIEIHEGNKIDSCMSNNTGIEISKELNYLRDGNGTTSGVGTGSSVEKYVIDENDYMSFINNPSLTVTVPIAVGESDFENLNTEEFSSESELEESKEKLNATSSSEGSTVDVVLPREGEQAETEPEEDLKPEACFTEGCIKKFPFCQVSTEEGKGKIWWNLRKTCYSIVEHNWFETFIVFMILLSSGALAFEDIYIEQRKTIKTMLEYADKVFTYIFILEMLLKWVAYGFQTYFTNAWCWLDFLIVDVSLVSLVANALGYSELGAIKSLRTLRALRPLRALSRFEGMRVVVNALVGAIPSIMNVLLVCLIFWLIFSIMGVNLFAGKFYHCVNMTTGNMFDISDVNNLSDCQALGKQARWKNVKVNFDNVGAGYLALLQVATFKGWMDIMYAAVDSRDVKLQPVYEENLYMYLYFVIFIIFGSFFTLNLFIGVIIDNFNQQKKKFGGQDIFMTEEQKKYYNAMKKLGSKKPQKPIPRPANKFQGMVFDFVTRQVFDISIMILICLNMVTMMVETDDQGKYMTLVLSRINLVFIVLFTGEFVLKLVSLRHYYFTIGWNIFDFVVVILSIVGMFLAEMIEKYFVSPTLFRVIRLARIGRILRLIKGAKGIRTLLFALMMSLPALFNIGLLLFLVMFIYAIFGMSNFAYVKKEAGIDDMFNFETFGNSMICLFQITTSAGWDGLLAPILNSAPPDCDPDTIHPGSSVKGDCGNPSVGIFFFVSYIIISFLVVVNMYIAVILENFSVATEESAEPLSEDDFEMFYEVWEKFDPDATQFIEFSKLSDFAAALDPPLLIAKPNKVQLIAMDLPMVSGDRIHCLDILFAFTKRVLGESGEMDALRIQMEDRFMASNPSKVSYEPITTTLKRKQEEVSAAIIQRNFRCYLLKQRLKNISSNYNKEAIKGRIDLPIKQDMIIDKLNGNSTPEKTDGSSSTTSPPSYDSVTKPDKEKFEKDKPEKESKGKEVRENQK
# T1 sequence (Q14524 whole entry): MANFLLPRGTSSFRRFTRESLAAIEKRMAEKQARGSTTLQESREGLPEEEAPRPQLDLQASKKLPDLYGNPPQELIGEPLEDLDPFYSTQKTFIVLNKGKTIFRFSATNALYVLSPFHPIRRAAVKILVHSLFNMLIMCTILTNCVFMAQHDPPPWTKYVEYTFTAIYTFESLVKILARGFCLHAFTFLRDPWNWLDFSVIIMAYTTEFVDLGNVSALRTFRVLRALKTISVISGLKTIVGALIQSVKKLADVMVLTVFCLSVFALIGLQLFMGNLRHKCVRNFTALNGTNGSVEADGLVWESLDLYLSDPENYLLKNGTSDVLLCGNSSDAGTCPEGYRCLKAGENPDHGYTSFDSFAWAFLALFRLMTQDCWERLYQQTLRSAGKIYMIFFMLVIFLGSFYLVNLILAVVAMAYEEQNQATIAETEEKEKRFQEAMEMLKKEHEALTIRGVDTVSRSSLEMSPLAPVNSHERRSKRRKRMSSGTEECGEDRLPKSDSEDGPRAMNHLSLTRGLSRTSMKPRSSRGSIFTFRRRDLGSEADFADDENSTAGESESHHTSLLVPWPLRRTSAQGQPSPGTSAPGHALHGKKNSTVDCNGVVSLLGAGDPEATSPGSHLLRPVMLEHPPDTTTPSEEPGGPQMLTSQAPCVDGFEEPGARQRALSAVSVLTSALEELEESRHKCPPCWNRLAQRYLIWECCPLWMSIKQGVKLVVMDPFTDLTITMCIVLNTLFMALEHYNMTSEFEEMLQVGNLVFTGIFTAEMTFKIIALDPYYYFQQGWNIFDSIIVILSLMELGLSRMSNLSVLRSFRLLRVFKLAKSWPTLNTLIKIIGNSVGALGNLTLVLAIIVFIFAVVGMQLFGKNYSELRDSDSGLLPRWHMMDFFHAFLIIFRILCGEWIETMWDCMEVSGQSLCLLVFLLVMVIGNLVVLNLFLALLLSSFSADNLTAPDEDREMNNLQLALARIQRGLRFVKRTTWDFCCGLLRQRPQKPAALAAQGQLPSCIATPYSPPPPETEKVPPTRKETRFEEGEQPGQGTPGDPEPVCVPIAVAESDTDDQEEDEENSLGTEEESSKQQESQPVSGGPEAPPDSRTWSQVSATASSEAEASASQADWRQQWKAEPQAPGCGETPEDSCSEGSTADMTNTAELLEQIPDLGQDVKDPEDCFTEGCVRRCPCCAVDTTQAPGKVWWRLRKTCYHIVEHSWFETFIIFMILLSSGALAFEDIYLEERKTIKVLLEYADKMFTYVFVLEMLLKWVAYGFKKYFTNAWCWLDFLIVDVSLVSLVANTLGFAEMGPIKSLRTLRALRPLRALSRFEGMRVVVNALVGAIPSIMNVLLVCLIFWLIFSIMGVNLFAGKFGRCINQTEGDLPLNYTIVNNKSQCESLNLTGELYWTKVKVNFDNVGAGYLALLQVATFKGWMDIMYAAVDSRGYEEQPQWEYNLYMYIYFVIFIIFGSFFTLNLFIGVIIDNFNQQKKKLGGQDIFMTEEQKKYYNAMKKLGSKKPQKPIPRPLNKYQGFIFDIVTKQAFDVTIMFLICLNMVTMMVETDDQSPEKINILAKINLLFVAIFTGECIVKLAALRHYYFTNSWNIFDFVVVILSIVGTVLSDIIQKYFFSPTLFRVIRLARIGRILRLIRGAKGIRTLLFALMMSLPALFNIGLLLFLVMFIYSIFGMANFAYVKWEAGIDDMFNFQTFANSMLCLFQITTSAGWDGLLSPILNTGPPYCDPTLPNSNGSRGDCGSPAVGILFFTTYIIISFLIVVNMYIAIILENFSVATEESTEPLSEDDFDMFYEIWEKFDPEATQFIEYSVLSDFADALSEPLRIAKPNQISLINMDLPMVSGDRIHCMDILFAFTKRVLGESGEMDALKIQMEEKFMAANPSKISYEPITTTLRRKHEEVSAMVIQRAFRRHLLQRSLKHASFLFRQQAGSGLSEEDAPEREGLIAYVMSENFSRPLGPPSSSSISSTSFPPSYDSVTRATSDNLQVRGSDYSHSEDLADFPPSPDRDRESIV
IC50 (human Nav1.3),IC50 (human Nav1.7),Ki (human Nav1.7 (hSCN9A)),SMILES,IC50 (human Nav1.5)
510 nM,1000 nM,–,"CCC(=O)Nc1cc(CNC(=O)c2ccc(OCC(F)(F)F)nc2)cc(C)n1 [Example 12, N-((2-methyl-6-propionamidopyridin-4-yl)methyl)-6-(2,2,2-trifluoroethoxy) nicotinamide]",> 30000 nM
–,–,950 nM,"CC(=O)Nc1cc(C(C)NC(=O)c2ccc(OCC(F)(F)F)cn2)cc(C)n1 (single isomer, unassigned) [Example 29, N-(1-(2-acetamido-6-methylpyridin-4-yl)ethyl)-5-(2,2,2-trifluoroethoxy) picolinamide]",–
